Consider 1 compound from patent US12636323B2, “Use of Clostridium ghonii combined with tumor angiogenesis inhibitor” (priority 2021, dated 2026).

Structures are written as SMILES.

One series has as its system CT26 tumor cells. Kind of series: Antitumor effect of Clostridium ghonii spores combined with different doses of apatinib (AITAN) in CT26 mouse model. It is filed as in vivo, BALB/c mice. To be noted: for Tumor inhibition rate (row head: Anti-bacterial rate): calculated from tumor weight; for Tumor weight: n=7; for Cure rate: tumors completely eliminated at end of experiment. As to the method: BALB/c mice were subcutaneously inoculated with CT26 tumor cells to establish a subcutaneous tumor model for colon cancer. 0.2 mL of a cell suspension with a concentration of 7.5×10^6 cells/mL (acceptable range: 6.75×10^6 cells/mL-8.25×10^6 cells/mL) was extracted with a 1-mL disposable sterile syringe and slowly subcutaneously injected into axillae of right forelimbs of mice (pre-sterilized with 75% alcohol). After injection, needle eyes were gently pressed with dry cotton balls.
Tumor measurement: a maximum long diameter (L) and a maximum transverse diameter (W) of a tumor (including a thickness of a mouse skin) were measured with a vernier caliper, and a tumor volume was calculated according to a formula of
Tumor weight: a tumor tissue was dissected out and weighed and tumor weight was recorded.
Tumor inhibition rate (IRTW%)=(average tumor weight of control group-average tumor weight of experimental group)/average tumor weight of control group×100%.
(§1) According to a random principle, the conforming mice (a tumor volume of 0.31-0.41 cm^3) were divided into 8 groups by lottery: control group, spore group, high-dose apatinib (AITAN) group, medium-dose apatinib (AITAN) group, low-dose apatinib (AITAN) group, Clostridium ghonii combined low-dose apatinib (AITAN) group, Clostridium ghonii combined medium-dose apatinib (AITAN) group, and Clostridium ghonii combined high-dose apatinib (AITAN) group.
(§2) Control group: the mice were intratumorally administrated with a same volume of a 0.9% sodium chloride injection; • spore group: the mice were intratumorally administrated at a dose of 1×10^7 cfu/tumor/time twice; • High-dose apatinib (AITAN) group: the mice were gavaged at a dose of 180 mg/kg/d once every day for a total of 7 times; • Medium-dose apatinib (AITAN) group: the mice were gavaged at a dose of 120 mg/kg/d once every day for a total of 7 times; • Low-dose apatinib (AITAN) group: the mice were gavaged at a dose of 60 mg/kg/d once every day for a total of 7 times; and
(§3) Clostridium ghonii combined apatinib (AITAN) groups: mice were first intratumorally administrated with apatinib (AITAN) once every day for 3 days and then Clostridium ghonii spores at a dose of 1×10^7 cfu/tumor/time once every other day for a total of two times. The dose of the apatinib (AITAN) in the combined high, medium and low-dose apatinib (AITAN) groups was the same as that in the high, medium and low-dose apatinib (AITAN) groups.

A short description of series [1]: Death and net body weight of tumor-bearing mice in Example 3. To be noted: mean ± SD, n=7. It counts as in vivo, BALB/c mice. As to the method:
Clinical observation: during an administration period, animal behaviors, death or near-death, etc. were observed using the naked eyes once every morning and afternoon.
Body weight: during the administration period, body weight was measured on the day of the tumor measurement from the day of treatment.
as §1, §2, §3

[2] abbreviates: medium-dose apatinib 120 mg/kg/d.

For `N#CC1(c2ccc(NC(=O)c3cccnc3NCc3ccncc3)cc2)CCCC1` [apatinib (AITAN), apatinib], the Tumor volume in the series with CT26 tumor cells (D-1, Table 2 (low-dose apatinib)) was found to be 1049.42 ± 166.37 mm^3; with CT26 tumor cells (D-1, upper part of Table 2, low-dose apatinib 60 mg/kg/d), 931.50 ± 97.91 mm; with CT26 tumor cells (D-4, Table 2 (low-dose apatinib)), 1499.45 ± 303.10 mm^3; in the series on CT26 tumor cells (D-4, upper part of Table 2, low-dose apatinib 60 mg/kg/d) it was 1489.82 ± 232.84 mm; with CT26 tumor cells (D-8, Table 2 (low-dose apatinib)) it was 2442.80 ± 882.95 mm^3; with CT26 tumor cells (D-8, upper part of Table 2, low-dose apatinib 60 mg/kg/d) it was 2275.35 ± 348.84 mm. The “Tumor inhibition rate (row head: Anti-bacterial rate)” value in the series with CT26 tumor cells (high-dose apatinib 180 mg/kg/d) was 21.68%; with CT26 tumor cells (low-dose apatinib 60 mg/kg/d), 20.21%; in the series on CT26 tumor cells (setting [2]), 13.89%. Moreover, the Tumor weight with CT26 tumor cells (high-dose apatinib 180 mg/kg/d) was 3.49 ± 0.86 g; in the series on CT26 tumor cells (low-dose apatinib 60 mg/kg/d), 3.55 ± 0.61 g; with CT26 tumor cells (setting [2]) it was 3.84 ± 0.69 g. The Cure rate with CT26 tumor cells (high-dose apatinib 180 mg/kg/d), with CT26 tumor cells (low-dose apatinib 60 mg/kg/d) and in the series with CT26 tumor cells (setting [2]) was 0% throughout. For the same compound, the values for the Net body weight in series [1] (high-dose apatinib 180 mg/kg/d), in series [1] (low-dose apatinib 60 mg/kg/d) and in series [1] (setting [2]) were 18.44 ± 1.42 g, 18.32 ± 1.12 g and 18.02 ± 1.61 g, respectively.
